From ChEMBL document CHEMBL3638639, “Chemical compounds” (2015)

molecular target: T1, Solute carrier family 22 member 12 (Homo sapiens, UniProt Q96S37); assay: [14C]-Uric Uric acid working stock was made by addition of radiolabeled compound to a final concentration of 120 nM in chloride-free buffer. In all wells, the final assay concentration of solvent (DMSO) was 0.25%; the final assay concentration of [14C]-uric acid was 30 nM in chloride-free buffer and the final compound of formula (I) concentrations ranged from 0 to 10 uM.
T1 sequence (Q96S37 whole entry): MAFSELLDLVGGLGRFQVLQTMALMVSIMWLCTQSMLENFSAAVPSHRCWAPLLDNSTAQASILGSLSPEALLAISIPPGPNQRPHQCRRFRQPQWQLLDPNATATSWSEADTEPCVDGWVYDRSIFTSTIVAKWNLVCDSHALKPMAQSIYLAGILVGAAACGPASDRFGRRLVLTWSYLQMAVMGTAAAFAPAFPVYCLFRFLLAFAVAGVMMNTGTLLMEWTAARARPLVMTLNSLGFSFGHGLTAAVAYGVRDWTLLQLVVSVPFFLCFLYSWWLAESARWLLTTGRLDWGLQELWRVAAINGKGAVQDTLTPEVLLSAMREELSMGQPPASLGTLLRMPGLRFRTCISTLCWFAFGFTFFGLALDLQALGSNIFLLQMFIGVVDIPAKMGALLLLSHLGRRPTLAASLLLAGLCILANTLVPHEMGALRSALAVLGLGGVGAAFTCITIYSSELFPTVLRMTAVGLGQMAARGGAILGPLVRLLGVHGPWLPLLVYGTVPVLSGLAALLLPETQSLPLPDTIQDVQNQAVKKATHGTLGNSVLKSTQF

Compared with N#Cc1ccc(Oc2ccc(S(=O)(=O)Nc3ccc(F)cn3)cc2C#N)c(F)c1, Cc1ccc(F)c(Oc2ccc(S(=O)(=O)Nc3ccc(F)cn3)cc2C#N)c1 is 2.5-fold higher in IC50: 47 nM for the first, 117 nM for the second.

Compared with N#Cc1cc(S(=O)(=O)Nc2ccc(F)cn2)ccc1Oc1ccc(Cl)cc1Cl, Cc1ccc(Cl)c(Oc2ccc(S(=O)(=O)Nc3ccc(F)cn3)cc2C#N)c1 is 2.3-fold higher in IC50: 84 nM for the first, 196 nM for the second. The first is the more potent here.

Going from N#Cc1ccccc1Oc1ccc(S(=O)(=O)Nc2ccc(F)cn2)cc1C#N to N#Cc1cc(S(=O)(=O)Nc2ccc(F)cn2)ccc1Oc1cnc(N)c(Cl)c1, the IC50 falls from 495 nM to 87 nM (5.7-fold). The second is the more potent here.

Compared with N#Cc1cc(S(=O)(=O)Nc2ccc(F)cn2)ccc1Oc1cnc(N2CCC2)c(Cl)c1, CNc1ncc(Oc2ccc(S(=O)(=O)Nc3ccc(F)cn3)cc2C#N)cc1Cl is 3.9-fold lower in IC50: 1000 nM for the first, 258 nM for the second.

In the case of CN(C)c1ncc(Oc2ccc(S(=O)(=O)Nc3ccc(F)cn3)cc2C#N)cc1Cl, the IC50 is reported as 472 nM.
